From patent US20210308028A1, “Compositions and Methods for Maintaining and Protecting Tissue Integrity and Barrier Function” (Colgate-Palmolive Company, priority 2020, published 2021)
Where a name gives a salt, the structure may show the parent alone.

Columns and labels:
[1] = system: gingival keratinocyte barrier; conditions: previously reported; cited from earlier work
[2] = system: Mattek Epigingival tissues; assay: TER of Epigingival tissues upon sodium lauryl sulfate (SLS) challenge; format: cell-based, human
Excerpt: Cell junctions are intercellular pathways that selectively permit the movement of molecules through cellular layers. In terms of biological function, cell junctions form a barrier between apical and basolateral cell surfaces and are crucial in the development and function of epithelial tissues. The ion permeability of cell junctions can be measured through a voltmeter in the form of Trans Epithelial Electric Resistance (TER). Measurements are quickly determined through an electrode with little to no disturbance to the cell layers. The resistance correlates to the integrity of the tissue, and confluent tissue layers with intact cell junctions lead to higher TER readings.
Epigingival tissues were purchased from Mattek Corporation for use in the experiment. These multilayered epithelial cells imitate human gingival tissue in-vivo and can withstand high concentrations of toothpaste solutions. Once the tissues arrived in the laboratory, individual tissues were reconstituted in 1 mL of Mattek provided GIN-100 maintenance medium overnight at 37° C. and 5% CO2 before testing of samples. The medium was changed every day after treatment.
TER measurement experiment was performed comparing the neat active ingredients in solution and their effects on the physical integrity of Mattek Epigingival tissues. […]

[3] = system: intestinal mucosal barrier; conditions: reported; cited from earlier work
gingival keratinocytes [4] = assay: MTT colorimetric cell viability assay; format: cell-based, human
Procedure: The tight junction integrity of the B11 gingival keratinocytes was assessed by determining the transepithelial electrical resistance (TER). Briefly, B11 keratinocytes were seeded onto Costar™ Transwell™ clear polyester membrane inserts (6.5-mm diameter; 0.4-μm pore size; Corning Co., Cambridge, Mass., USA) at 3×10^5 cells per insert. The basolateral and apical compartments were filled with 0.6 mL and 0.1 mL of complete K-SFM, respectively, and the cultures were incubated for 3 days at 37° C. in a 5% CO2 atmosphere. The conditioned medium was then replaced with fresh antibiotic-free K-SFM. Following a further incubation (16 h), the TER values were measured using an Ohm/voltmeter (EVOM2; World Precision Instruments, Sarasota, Fla., USA) at 0, 2, 6, 24, and 48 h. Resistance values were calculated in Ohms (Ω)/cm^2 by multiplying the resistance values by the filter surface area. Results were expressed as a percentage of the basal control values measured at time 0 h (100% values) for each condition. […] The effect of these treatments on cell viability was assessed using an MTT (3-[4,5-[…]-2-yl]-2,5diphenyltetrazolim bromide) colorimetric assay, according to the manufacturer's instructions (Roche Diagnostics, Laval, QC, Canada).

[5] = system: B11 gingival keratinocytes treated with TNF-α; assay: FITC-dextran paracellular transport with TNF-α challenge; format: cell-based, human; conditions: TNF-α 100 ng/ml, 48-h exposure
Procedure: The ability of test composition samples to enhance epithelial barrier integrity was assessed by monitoring the paracellular transport of FITC-conjugated 4.4-kDa dextran (FD-4; Sigma-Aldrich Canada Ltd.) across the keratinocyte layer. Briefly, B11 cells were cultured on Transwell filters, and FD-4 ([…] in culture medium) was added in the apical compartment in the presence of the test composition under investigation. Fluorescence in the basolateral compartment was measured at 0, 4, 8, 24, and 48 h using a Synergy 2 microplate reader (BioTek Instrument, Winooski, Vt., USA).
(§1) Assays exposed cells to either TNFα only or TNFα+test composition. TNFα is known to cause tissue damage. A stock solution of recombinant TNF-α is prepared in sterile distilled water at 100 μg/ml. Thereafter, dilutions are made in keratinocyte culture medium. First dilution is 1/1000 to obtain 100 ng/ml. TNF-α and the test compounds are added simultaneously.
Gingival keratinocytes were cultured in the apical chamber of Transwell™ inserts as described above. Immediately after adding fluorescein isothiocyanate-conjugated dextran of 4.4 kDa (FD-4; 1 mg/ml in culture medium) to the apical compartment, the formulations under investigation were added in presence of recombinant TNF-α (100 ng/ml). Fluorescence in the basolateral compartment was recorded after 0, 2, 6, 24, and 48 h of incubation using a Synergy 2 microplate reader (BioTek Instruments; Winooski, Vt., USA).

[6] = system: B11 gingival keratinocytes treated with TNF-α; assay: TER with TNF-α challenge; format: cell-based, human; conditions: TNF-α 100 ng/ml
Procedure: Tight junction integrity was assessed by determining the trans-epithelial electrical resistance (TER). B11 gingival keratinocytes were seeded onto Costar™ Transwell™ clear polyester membrane inserts (6.5-mm diameter; 0.4-μm pore size; Corning Co., Cambridge, Mass., USA) at 3×10^5 cells per insert. The basolateral and apical compartments were filled with 0.6 mL and 0.1 mL of complete K-SFM, respectively. Following a 72-h incubation, the conditioned medium was replaced with antibiotic-free K-SFM, and the cells were incubated for a further 16 h. The TER values were measured using an Ohm/voltmeter (EVOM2; World Precision Instruments, Sarasota, Fla., USA) at 0, 4, 8, 24, 48, and 72 h. Resistance values were calculated in Ohms (Ω)/cm 2 by multiplying the resistance values by the filter surface area. Results were expressed as percentage of the basal control values measured at time 0 h (100% values) for each condition.
as §1
Keratinocyte barrier integrity was determined by monitoring transepithelial electrical resistance (TER). Briefly, keratinocytes (3×10^5 cells per insert; 0.1 ml) were seeded in the apical compartment of Costar™ Transwell™ clear polyester membrane inserts (6.5 mm in diameter, 0.4 μm pore size; Corning Co., Cambridge, Mass., USA), while the basolateral compartment was filled with 0.6 ml of culture medium. After 72-h of incubation, the conditioned culture medium was replaced with fresh antibiotic-free K-SFM, and the cells were further incubated for 16 h prior treating the cells. Recombinant human TNF-α (100 ng/ml; AnaSpec, Fremont, USA) and the formulations (final dilutions of 1/500, 1/1000, and 1/2000 (v/v for the aqueous solution; w/v for the dentifrice) under investigation were added to the apical compartment. The TER values were monitored using an ohm/voltmeter (EVOM^2; World Precision Instruments, Sarasota, Fla., USA) after 0, 6, 24, and 48 h of incubation. The TER values in Ohms (Ω)/cm^2 were determined by multiplying the resistance values by the surface area of the membrane filter. Results are expressed as the percentage of the basal control value measured at time 0-h (100% value).

gingival keratinocytes [7] = assay: Keratinocyte proliferation (CellTracker Green CMFDA); format: cell-based, human; conditions: TNF-α 100 ng/ml
Procedure: Gingival keratinocytes were seeded into wells (20,000 cells per well) of a 96-well microplate (0.1 ml/well) and incubated overnight at 37° C. in a 5% CO2 atmosphere to allow cell adhesion. The culture medium was then removed, and the cells were treated or not with TNF-α (100 ng/ml) with or without the formulations under investigation for 72 h at 37° C. in a 5% CO2 atmosphere. Cell proliferation was measured using the fluorescent CellTracker™ Green CMFDA (5-chloromethylfluorescein diacetate) Dye according to the manufacturer's instructions (Thermo Fisher Scientific). Untreated control cells were assigned a value of 100%. Briefly, after 24 h of stimulation, the supernatant was removed and the cells were washed with PBS. […] Fluorescent keratinocytes were also visualized using an inverted Olympus FS X100 fluorescent microscope.

[8] = system: P. gingivalis collagenase; assay: Proteolytic assay: collagen DQ degradation by P. gingivalis culture supernatant; format: biochemical, Porphyromonas gingivalis; conditions: Example 6, FIGS. 35, 38, 41; over 5 hours
Procedure: To determine the effects of formulations tested on the proteinase activity of P. gingivalis, a 48-h culture was centrifuged at 10 000×g for 10 min. […] The fluorescence corresponding to collagen degradation was monitored using a Synergy 2 microplate reader, with the excitation and emission wavelengths set at 495 nm and 525 nm, respectively. Test compounds or the fluorescent substrate alone were used as controls. For the proteolytic assay, the following ratio was used: 40% P. gingivalis supernatant+40% test compounds+20% DQ collagen. […]
To determine the effects of the Dual Zinc plus Arginine aqueous solution and dentifrice on the proteinase activity of P. gingivalis, a 48-h culture was centrifuged at 10 000×g for 10 min. Assay mixtures containing equal volumes of P. gingivalis culture supernatant, the fluorescent substrate collagen DQ™ (100 μg/mL; Molecular Probes, Eugene, Oreg., USA), and the Dual Zinc […] The fluorescence corresponding to collagen degradation was monitored using a Synergy 2 microplate reader, with the excitation and emission wavelengths set at 495 nm and 525 nm, respectively. Test compounds or the fluorescent substrate alone were used as controls. Leupeptin (1 μM) was used as a positive inhibitory control.

[9] = system: in vitro oral mucosa model; conditions: Rybakovsky 2017; cited from earlier work
[10] = system: intestinal epithelial barrier; conditions: Sarkar 2019; in vivo (mouse) and in vitro models; cited from earlier work

**Q.** With `Nc1nc(N)nc(-c2cc(Cl)ccc2Cl)n1` [irsogladine maleate] as the molecule, how does the “protection of gingival keratinocyte barrier against TNF-α-induced damage” value (shortened to “protection … against TNF-α-induced damage”) [1] read?
**A.** The value was “reversed the TNF-α-induced disruption of the gingival epithelial barrier”.

**Q.** Which “effect on SLS-induced increase in tissue permeability (TER ratio)” value ([2]; tissues treated 3x over 3 days, then 0.5% SLS for 2 minutes, FIGS. 1-4) does the source give for `N=C(N)NCCC[C@H](N)C(=O)O` [Arginine, arginine] here?
**A.** Its value is “minimal effect”.

**Q.** And the “intestinal mucosal barrier functions” value [3]?
**A.** The value was “improve the intestinal mucosal barrier functions”.

**Q.** With `CCCCCCCCCCCCOS(=O)(=O)[O-].[Na+]` [SLS, Sodium Lauryl Sulfate, reference compound] as the molecule, how does the “tissue permeability after SLS treatment” value ([2]; 0.5% SLS solution for 2 minutes) read?
**A.** The value was “increase in tissue permeability”.

**Q.** Which “protection … against TNF-α-induced damage” value [1] does the source give for theaflavins here?
**A.** The value was “prevented epithelial barrier disruption”.

**Q.** Which results are given for TNF-α?
**A.** viability of gingival keratinocytes (MTT) (gingival keratinocytes [4]): no significant loss of cell viability; increase of FD-4 transport by TNF-α [5]: 50.8%; decrease of TER by TNF-α ([6]; 6 h): 25.8%; decrease of TER by TNF-α ([6]; 24 h): 49.3%; decrease of TER by TNF-α ([6]; 48 h): 85.1%; reduction of cell proliferation by TNF-α (gingival keratinocytes [7]): 30.2%

**Q.** Which “inhibition of P. gingivalis collagenase activity” value [8] does the source give for `CC(=O)N[C@@H](CC(C)C)C(=O)N[C@@H](CC(C)C)C(=O)N[C@H](C=O)CCCNC(=N)N` [Leupeptin, reference compound] here?
**A.** The value was “inhibited P. gingivalis collagenase activity”.

**Q.** For epigallocatechin-3-gallate, which “protection … against TNF-α-induced damage” value [1] is on record?
**A.** Its value is “prevented epithelial barrier disruption”.

**Q.** Which “epithelial barrier function (transepithelial electrical resistance)” value [9] does the source give for `[Zn]` [zinc] here?
**A.** The value was “improve epithelial barrier function”.

**Q.** And the “protection of intestinal epithelial barrier from Shigella flexneri” value [10]?
**A.** The value was “allows protection of the intestinal epithelial barrier from damage mediated by the pathogen Shigella flexneri”.
